From US20170037028A1 (BAYER PHARMA AKTIENGESELLSCHAFT, priority 2013, published 2017) come the findings set out here.

By IC50 is commonly meant the concentration needed to halve the response being measured.

The target of the first test is T1, GLUT1 (Homo sapiens, UniProt P11166).
T1 sequence (P11166 1-492): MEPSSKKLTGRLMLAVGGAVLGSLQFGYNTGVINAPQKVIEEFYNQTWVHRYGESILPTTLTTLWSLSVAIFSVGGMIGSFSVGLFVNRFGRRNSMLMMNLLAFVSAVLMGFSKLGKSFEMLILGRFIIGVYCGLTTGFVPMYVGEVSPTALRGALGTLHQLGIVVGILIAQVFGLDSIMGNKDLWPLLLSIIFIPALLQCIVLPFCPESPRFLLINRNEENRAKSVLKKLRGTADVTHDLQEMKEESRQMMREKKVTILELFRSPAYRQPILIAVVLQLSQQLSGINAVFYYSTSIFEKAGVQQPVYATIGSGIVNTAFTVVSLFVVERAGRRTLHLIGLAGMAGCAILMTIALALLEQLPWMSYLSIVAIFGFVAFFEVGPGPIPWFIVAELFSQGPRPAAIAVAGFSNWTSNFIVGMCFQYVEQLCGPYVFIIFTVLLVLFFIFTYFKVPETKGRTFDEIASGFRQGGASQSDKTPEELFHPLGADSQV
The test can be described thus: Indirect measurement of GLUT1 activity by quantification of intracellular ATP levels (glucose induced ATP increase). As to conditions: DLD1 cells; 0.1 mM glucose, 1 μM Rotenone, 15 min; CellTiter-Glo ATP readout; IC50 values standardized to cytochalasin B IC50 values; read-out: IC50 regarding glucose induced ATP increase (GLUT1 inhibition). Also on record: endogenous in cells; host or cells: DLD1 or CHO-K1. The format is cell-based. The essentials: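 DLD1 or CHO-K1 cells were starved overnight in glucose-free medium with 1% FCS, then combined with an oxidative phosphorylation inhibitor. GLUT1 activity was read as glucose-induced ATP increase, GLUT2 as fructose-induced. Intracellular ATP was quantified by CellTiter-Glo luminescence.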
Background: In ATP-based viability assays light output follows the ATP content of the culture.
With `Cc1nn(CC2CCOCC2)c(C)c1NC(=O)c1cc(C(F)(F)F)nc2ccc(Br)cc12` [Example 1114], the IC50 came out at 59.2 nM.

The test is the same for the next values; noted with them: read-out: IC50 regarding glucose induced ATP increase (GLUT1 inhibition).
Turning to `Cc1nn(Cc2cccc(S(C)(=O)=O)c2)c(C)c1NC(=O)c1cc(C(N)=O)nc2cccc(F)c12` [Example 1641], the IC50 is 168 nM.

As to `Cc1c(NC(=O)c2cc(C(F)(F)F)nc3ccc(Br)cc23)c(C(F)(F)F)nn1Cc1ccc(C(=O)N(C)C)cn1` [Example 1194], the IC50 was determined as 363 nM.

`COc1ccc(CNC(=O)c2ccc(Cn3nc(C)c(NC(=O)c4cc(C(F)(F)F)nc5ccc(Br)cc45)c3C)cc2)cc1` [Example 1229]: the IC50 stood at 999 nM.

As to `Cc1c(NC(=O)c2cc(C(N)=O)nc3cc(F)c(Cl)cc23)c(C(F)(F)F)nn1Cc1cc(C#N)no1` [Example 1673], the IC50 was determined as 56.1 nM.

On to `Cc1c(NC(=O)c2cc(S(N)(=O)=O)nc3ccccc23)c(C(F)(F)F)nn1Cc1ccc(C#N)cc1` [Example 1572], for which the IC50 stood at 219 nM.

As to `COc1ccc(Cn2nc(C)c(NC(=O)c3cc(C(F)(F)F)nc4ccc(Br)cc34)c2C)cc1F` [Example 1039], the IC50 worked out at 5.7 nM.

On to `COC(=O)Cc1ccc(Cn2nc(C)c(NC(=O)c3cc(C(F)(F)F)nc4ccc(Br)cc34)c2C)cc1` [Example 150, methyl (4-{[4-({[6-bromo-2-(trifluoromethyl)quinolin-4-yl]carbonyl}amino)-3,5-dimethyl-1H-pyrazol-1-yl]methyl}phenyl)acetate], for which the half-maximal inhibitory concentration (IC50) was determined as 11.7 nM.

For the compound `COc1cc(C(=O)Nc2c(C)nn(Cc3cccnc3C#N)c2C)c2ccccc2n1` [Example 1153], the IC50 amounted to 136 nM.

As to `Cc1cc(Cn2nc(C)c(NC(=O)c3cc(C(N)=O)nc4cc(F)c(Cl)cc34)c2C)ccc1C#N` [Example 1696], the IC50 was 0.9 nM.

On to `CCCCS(=O)(=O)N1CCC(Cn2nc(C)c(NC(=O)c3cc(C(N)=O)nc4ccccc34)c2C)CC1` [Example 1511], for which the IC50 came out at 31.8 nM.

Take `CNC(=O)c1ccc(Cn2nc(C(F)(F)F)c(NC(=O)c3cc(C(N)=O)nc4cc(F)ccc34)c2C)cc1` [Example 370, 7-fluoro-N^4-{5-methyl-1-[4-(methylcarbamoyl)benzyl]-3-(trifluoromethyl)-1H-pyrazol-4-yl}quinoline-2,4-dicarboxamide]: the IC50 was 12.8 nM.

With `Cc1nn(Cc2ccc(F)cc2)c(C)c1N(Cc1ccccc1)C(=O)c1cc(C(F)(F)F)nc2ccc(Br)cc12` [Example 200], the IC50 is 539 nM.

Turning to `Cc1nn(Cc2ccc(F)cc2C#N)c(C)c1NC(=O)c1cc(C(N)=O)nc2cc(F)ccc12` [Example 1660], the IC50 was 1.3 nM.

Turning to `Cc1nn(Cc2ncccc2C#N)c(C)c1NC(=O)c1cc(C(F)(F)F)nc2ccc(Br)cc12` [Example 234, 6-bromo-N-{1-[(3-cyanopyridin-2-yl)methyl]-3,5-dimethyl-1H-pyrazol-4-yl}-2-(trifluoromethyl)quinoline-4-carboxamide], the IC50 was 9.2 nM.

As to `CCS(=O)(=O)N1CCC(Cn2nc(C(F)(F)F)c(NC(=O)c3cc(C(N)=O)nc4cc(F)ccc34)c2C)CC1` [Example 1545], the IC50 is 43.1 nM.

For `CCc1nc(Cn2nc(C(F)(F)F)c(NC(=O)c3cc(C(N)=O)nc4cc(F)ccc34)c2C)no1` [Example 1548], the IC50 was 26.5 nM.

Turning to `CCN(CC)C(=O)c1ccc(Cn2nc(C)c(NC(=O)c3cc(C(F)(F)F)nc4ccc(Br)cc34)c2C)cc1` [Example 1203], the IC50 amounted to 433 nM.

Turning to `CC(=O)Nc1ccc2nc(C(F)(F)F)cc(C(=O)Nc3c(C)nn(Cc4ccc(F)cc4)c3C)c2c1` [Example 1169], the IC50 stood at 182 nM.

For `COc1cccc(Cn2nc(C)c(NC(=O)c3cc(C(N)=O)nc4cccc(F)c34)c2C)c1` [Example 1451], the IC50 was 8.5 nM.

As for `COc1cc(C(=O)Nc2c(C)nn(Cc3c(C)noc3C)c2C)c2ccccc2n1` [Example 1273], the concentration for half-maximal inhibition (IC50) is 3370 nM.

Regarding `CCS(=O)(=O)N1CCC(Cn2nc(C(F)(F)F)c(NC(=O)c3cc(C(N)=O)nc4ccccc34)c2C)CC1` [Example 1546], the IC50 is 33.7 nM.

Take `Cc1nn(Cc2ccc(F)cc2)c(C)c1NC(=O)c1cc(C(F)(F)F)nc2cccc(F)c12` [Example 26, 5-fluoro-N-[1-(4-fluorobenzyl)-3,5-dimethyl-1H-pyrazol-4-yl]-2-(trifluoromethyl)quinoline-4-carboxamide]: the IC50 is 15.7 nM.

For `Cc1nn(Cc2ccc(C(=O)NCC(C)(C)CO)cc2)c(C)c1NC(=O)c1cc(C(F)(F)F)nc2ccc(Br)cc12` [Example 1134], the IC50 stood at 97.3 nM.

With `COc1ccc(CCn2nc(C)c(NC(=O)c3cc(C(N)=O)nc4ccccc34)c2C)cc1` [Example 1353], the IC50 worked out at 38.9 nM.

With `Cc1nc(Cn2nc(C)c(NC(=O)c3cc(C(N)=O)nc4ccccc34)c2C)cs1` [Example 1568], the IC50 worked out at 27.3 nM.

Regarding `Cc1nn(Cc2ccccc2O)c(C)c1NC(=O)c1cc(C(F)(F)F)nc2c(Cl)cc(Cl)cc12` [Example 1071], the IC50 is 21 nM.

Take `COC(=O)c1ccc(Cn2nc(C)c(NC(=O)c3cc(C(F)(F)F)nc4ccc(Br)cc34)c2C)cc1` [Example 131, methyl 4-{[4-({[6-bromo-2-(trifluoromethyl)quinolin-4-yl]carbonyl}amino)-3,5-dimethyl-1H-pyrazol-1-yl]methyl}benzoate]: the IC50 worked out at 8.3 nM.

As to `Cc1c(NC(=O)c2cc(C(N)=O)nc3ccc(F)cc23)c(C(F)(F)F)nn1Cc1ccc(C#N)cc1` [Example 219, N^4-[1-(4-cyanobenzyl)-5-methyl-3-(trifluoromethyl)-1H-pyrazol-4-yl]-6-fluoroquinoline-2,4-dicarboxamide], the IC50 amounted to 5.4 nM.

As to `Cc1nn(Cc2ccc(C(=O)NCCCO)cn2)c(C)c1NC(=O)c1cc(C(F)(F)F)nc2ccc(Br)cc12` [Example 1131], the IC50 was 86.7 nM.

For the compound `Cc1c(NC(=O)c2cc(C(N)=O)nc3cc(F)c(Cl)cc23)c(C(F)(F)F)nn1Cc1cccc(C#N)c1` [Example 1580], the half-maximal inhibitory concentration (IC50) came out at 1.8 nM.

In the case of `CNC(=O)c1nc(Cn2nc(C(F)(F)F)c(NC(=O)c3cc(C(N)=O)nc4cc(F)ccc34)c2C)no1` [Example 1559], the IC50 is 72.7 nM.

Regarding `Cc1c(NC(=O)c2cc(C(N)=O)nc3ccccc23)c(C(F)(F)F)nn1Cc1ccc(C(C)O)cc1` (racemic) [Example 1615], the IC50 turned out to be 59.4 nM.

Consider `Cc1nn(Cc2cccnc2C#N)c(C)c1NC(=O)c1cc(C(N)=O)nc2cc(F)c(F)cc12` [Example 220, N^4-{1-[(2-cyanopyridin-3-yl)methyl]-3,5-dimethyl-1H-pyrazol-4-yl}-6,7-difluoroquinoline-2,4-dicarboxamide], for which the IC50 stood at 6.4 nM.

For the compound `CCc1nn(Cc2ccc(C#N)cc2)c(CC)c1NC(=O)c1cc(C(N)=O)nc2cc(F)c(Cl)cc12` [Example 311, 6-chloro-N^4-[1-(4-cyanobenzyl)-3,5-diethyl-1H-pyrazol-4-yl]-7-fluoroquinoline-2,4-dicarboxamide], the IC50 was found to be 6 nM.

On to `CCN(C(=O)c1cc(C(F)(F)F)nc2ccc(Br)cc12)c1c(C)nn(Cc2ccc(F)cc2)c1C` [Example 176, 6-bromo-N-ethyl-N-[1-(4-fluorobenzyl)-3,5-dimethyl-1H-pyrazol-4-yl]-2-(trifluoromethyl)quinoline-4-carboxamide], for which the IC50 was 72.2 nM.

On to `Cc1nn(Cc2ccc(F)cc2)c(C)c1NC(=O)c1cc(C(F)(F)F)nc2cc(F)c(Br)cc12` [Example 124, 6-bromo-7-fluoro-N-[1-(4-fluorobenzyl)-3,5-dimethyl-1H-pyrazol-4-yl]-2-(trifluoromethyl)quinoline-4-carboxamide], for which the IC50 worked out at 2.3 nM.

For the compound `COc1cc(C(=O)Nc2c(C)nn(Cc3cc(F)cc(F)c3)c2C)c2ccccc2n1` [Example 1284], the IC50 was 6250 nM.

On to `Cc1c(NC(=O)c2cc(C(N)=O)nc3cc(F)ccc23)c(C(F)(F)F)nn1Cc1ccc(C(C)(C)C#N)cc1` [Example 1596], for which the IC50 stood at 67.2 nM.

With `Cc1nn(Cc2ccc(C(=O)NCCC(C)(C)O)cc2)c(C)c1NC(=O)c1cc(C(F)(F)F)nc2ccc(Br)cc12` [Example 1204], the half-maximal inhibitory concentration (IC50) stood at 436 nM.

In the case of `COCCN(CCC#N)C(=O)c1ccc(Cn2nc(C)c(NC(=O)c3cc(C(F)(F)F)nc4ccc(Br)cc34)c2C)cc1` [Example 1054], the IC50 is 13.9 nM.

For the compound `Cc1c(NC(=O)c2cc(C(N)=O)nc3cc(F)c(Cl)cc23)c(C(C)C)nn1Cc1ccc(C#N)cc1` [Example 324, 6-chloro-N^4-[1-(4-cyanobenzyl)-3-isopropyl-5-methyl-1H-pyrazol-4-yl]-7-fluoroquinoline-2,4-dicarboxamide], the IC50 came to 1.9 nM.

As to `Cc1c(NC(=O)c2cc(C(F)(F)F)nc3ccc(Br)cc23)c(C(=O)N(C)C)nn1Cc1ccc(F)cc1` [Example 1259], the IC50 was 2100 nM.

As to `CCc1nn(Cc2ccc(C#N)cc2)c(CC)c1NC(=O)c1cc(C(N)=O)nc2cc(Cl)ccc12` [Example 313, 7-chloro-N^4-[1-(4-cyanobenzyl)-3,5-diethyl-1H-pyrazol-4-yl]quinoline-2,4-dicarboxamide], the IC50 amounted to 185 nM.

Turning to `Cc1nn(Cc2ccc(C(=O)NCCOc3ccccc3)cc2)c(C)c1NC(=O)c1cc(C(F)(F)F)nc2ccc(Br)cc12` [Example 1137], the IC50 turned out to be 100 nM.
